From ChEMBL document CHEMBL5325417, “Dual function of protein phosphatase 5 (PPP5C): An emerging therapeutic target for drug discovery” (Eur J Med Chem, 2023)
Changes are numbered by the printed parent chain. Starred links: 1 amine or outer side, 2 acyl side, 3 side chain; linkers in the order of their positions; H or OH if unused. Positions of bridges follow the written chain, without caps; N, C: chain ends. Non-standard residues stand in square brackets, D forms with d. Residues, ends and D or L forms follow the SMILES beside them. Adda = CO[C@@H](Cc1ccccc1)[C@@H](C)/C=C(C)/C=C/[C@H](N[*:1])[C@H](C)C(=O)[*:2]; dAsp(3S-Me) = C[C@H](C(=O)[*:3])[C@@H](N[*:1])C(=O)[*:2]; d(γGlu) = O=C(O)[C@@H](CCC(=O)[*:2])N[*:1]; NMeDha = C=C(NC)C(=O)O

Key:
[1] = biological target: T1, Serine/threonine-protein phosphatase 5 (Rattus norvegicus) (UniProt P53042); assay: Activation of rat PPP5C (428 to 430 residues) phosphatase domain expressed in Escherichia coli BL21-codonplus (DE3)-RIL cells using para-nitrophenyl phosphate as substrate assessed as fold increase at 10^5 nM; conditions: filed as activator, dose 1.0 10^5nM
T1 sequence (whole entry): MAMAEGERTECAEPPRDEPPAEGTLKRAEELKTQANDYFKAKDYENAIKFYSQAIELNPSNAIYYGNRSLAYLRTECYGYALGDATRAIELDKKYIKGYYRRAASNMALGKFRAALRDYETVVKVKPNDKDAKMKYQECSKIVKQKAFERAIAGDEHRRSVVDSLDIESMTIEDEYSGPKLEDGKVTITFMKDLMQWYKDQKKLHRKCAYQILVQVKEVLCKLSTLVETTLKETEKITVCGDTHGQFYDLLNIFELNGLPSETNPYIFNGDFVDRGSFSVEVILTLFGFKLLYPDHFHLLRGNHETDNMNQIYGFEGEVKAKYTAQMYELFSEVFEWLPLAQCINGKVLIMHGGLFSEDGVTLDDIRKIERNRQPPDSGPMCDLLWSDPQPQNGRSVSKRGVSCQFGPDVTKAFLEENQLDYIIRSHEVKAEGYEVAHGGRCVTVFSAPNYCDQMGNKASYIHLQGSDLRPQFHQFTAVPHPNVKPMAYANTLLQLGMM

[2] = biological target: T2, Serine/threonine-protein phosphatase 5 (Rattus norvegicus, UniProt P53042); assay: Binding affinity to rat PPP5C (428 to 430 residues) phosphatase domain expressed in Escherichia coli BL21-codonplus (DE3)-RIL cells using para-nitrophenyl phosphate as substrate assessed as dissociation constant at 10^5 nM
T2 sequence (P53042 whole entry): T1 sequence (whole entry)

[3] = biological target: T1, Serine/threonine-protein phosphatase 5 (Rattus norvegicus); assay: Activation of rat PPP5C (428 to 430 residues) phosphatase domain expressed in Escherichia coli BL21-codonplus (DE3)-RIL cells using para-nitrophenyl phosphate as substrate assessed as fold change in maximum efficacy at 10^5 nM; conditions: filed as activator, dose 1.0 10^5nM
[4] = biological target: T3, Serine/threonine-protein phosphatase 5 (Homo sapiens, UniProt P53041); assay: Activation of PPP5C (unknown origin) TPR domain
T3 sequence (P53041 whole entry): T1 sequence (whole entry) with E22D, T24A, N128H, S140N, R158K, T189S, D193E, C221S, V397I, Q419N

[5] = biological target: T3, Serine/threonine-protein phosphatase 5; assay: Inhibition of PPP5C (unknown origin) phosphatase domain
[6] = biological target: T3, Serine/threonine-protein phosphatase 5; assay: Inhibition of MBP fused recombinant human PPP5C phosphatase domain expressed in Escherichia coli using DiFMUP as substrate
[7] = Inhibition of bovine blood PP2A phosphatase domain expressed in Escherichia coli using DiFMUP as substrate; type: tissue-based, Bos taurus
[8] = Inhibition of PP1 (unknown origin) phosphatase domain; parameters: species or system Homo sapiens
[9] = biological target: T4, Serine/threonine-protein phosphatase 5 (Homo sapiens) (UniProt P53041); assay: Activation of PPP5C (unknown origin) TPR domain assessed as fold change; conditions: filed as activator
T4 sequence (whole entry): T1 sequence (whole entry) with E22D, T24A, N128H, S140N, R158K, T189S, D193E, C221S, V397I, Q419N

[10] = biological target: T4, Serine/threonine-protein phosphatase 5 (Homo sapiens); assay: Activation of Histidine-tagged human PPP5C TPR domain assessed as fold change at 10^5 nM; conditions: filed as activator, dose 1.0 10^5nM
[11] = biological target: T4, Serine/threonine-protein phosphatase 5 (Homo sapiens); assay: Inhibition of N-terminally 6His-tagged full-length human PPP5C (1 to 499 residues) TPR domain expressed in Escherichia coli Rosetta gami2 (de3) pLysS cells using pNPP as substrate at 10^6 nM preincubated for 10 mins followed by substrate addition and measured for 60 mins relative to control; conditions: dose 1.0 10^6nM, time 70.0 min
[12] = Inhibition of PP2A (unknown origin) phosphatase domain; parameters: species or system Homo sapiens
[13] = Inhibition of PP3 (unknown origin) phosphatase domain; parameters: species or system Homo sapiens
[14] = Inhibition of PP4 (unknown origin) phosphatase domain using phosphohistone as substrate; parameters: species or system Homo sapiens
[15] = Inhibition of PP6 (unknown origin) phosphatase domain; parameters: species or system Homo sapiens
[16] = biological target: T5, Serine/threonine-protein phosphatase 4 catalytic subunit (Homo sapiens, UniProt P60510); assay: Inhibition of PP4 (unknown origin) phosphatase domain
T5 sequence (P60510 whole entry): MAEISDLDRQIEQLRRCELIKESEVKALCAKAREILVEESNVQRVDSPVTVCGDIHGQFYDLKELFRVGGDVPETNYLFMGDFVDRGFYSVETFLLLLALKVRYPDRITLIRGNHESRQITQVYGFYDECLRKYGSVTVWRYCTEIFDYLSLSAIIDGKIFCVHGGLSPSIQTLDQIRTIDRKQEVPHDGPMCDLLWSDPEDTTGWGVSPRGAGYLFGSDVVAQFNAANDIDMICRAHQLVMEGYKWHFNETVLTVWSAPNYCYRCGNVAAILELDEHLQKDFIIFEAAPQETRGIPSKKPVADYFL

[17] = biological target: T6, Serine/threonine-protein phosphatase with EF-hands 1 (Homo sapiens, UniProt O14829); assay: Inhibition of PP7 (unknown origin) phosphatase domain
T6 sequence (O14829 whole entry): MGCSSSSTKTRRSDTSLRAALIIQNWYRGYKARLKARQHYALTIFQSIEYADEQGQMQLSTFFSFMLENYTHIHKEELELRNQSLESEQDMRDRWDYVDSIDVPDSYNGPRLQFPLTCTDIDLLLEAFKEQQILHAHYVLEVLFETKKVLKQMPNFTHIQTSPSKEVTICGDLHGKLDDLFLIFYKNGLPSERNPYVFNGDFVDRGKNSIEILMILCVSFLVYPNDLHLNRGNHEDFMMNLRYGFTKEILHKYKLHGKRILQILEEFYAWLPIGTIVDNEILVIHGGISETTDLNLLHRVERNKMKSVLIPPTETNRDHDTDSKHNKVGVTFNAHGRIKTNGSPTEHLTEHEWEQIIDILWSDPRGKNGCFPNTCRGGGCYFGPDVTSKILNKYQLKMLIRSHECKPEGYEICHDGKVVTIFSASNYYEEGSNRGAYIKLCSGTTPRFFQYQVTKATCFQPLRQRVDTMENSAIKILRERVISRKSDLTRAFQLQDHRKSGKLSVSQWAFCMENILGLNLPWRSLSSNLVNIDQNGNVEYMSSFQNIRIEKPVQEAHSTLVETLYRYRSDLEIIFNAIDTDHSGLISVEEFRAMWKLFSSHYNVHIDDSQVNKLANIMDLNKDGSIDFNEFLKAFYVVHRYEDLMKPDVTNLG

[18] = Inhibition of PP2A (unknown origin) phosphatase domain using phosphohistone as substrate; parameters: species or system Homo sapiens

SMILES: COc1ccc(-c2nc(Cc3ccc(Cl)cc3)no2)cc1OC
- fold change (FC) [1]: 3.2
- Kd [2]: 7.8 µM
- fold change (FC) [3]: 3.9

SMILES: O=C(O)CCCCCCCCCCCC[C@H]1C=CCC1
- EC50 [4]: 134 µM

SMILES: CCCCO[C@H]1C[C@@H]2O[C@H]1[C@@H](C(=O)O)[C@H]2C(=O)O
- IC50 [5]: 700 nM

SMILES: CN1CCN(C(=O)[C@H]2[C@@H](C(=O)O)[C@@H]3CC[C@H]2O3)CC1
- IC50 [6]: 1800 nM
- IC50 [7]: 400 nM
- IC50 [8]: 2.4 nM

SMILES: C[C@H]1C[C@@H]2O[C@H]1[C@@H](C(=O)O)[C@H]2C(=O)O
- IC50 [5]: 1000 nM

SMILES: CCCCC/C=C\C/C=C\C/C=C\C/C=C\CCCC(=O)O
- fold change (FC) [9]: 1.5

SMILES: Cc1ccc(C(=O)Nc2ccc(S(=O)(=O)O)c3cc(S(=O)(=O)O)cc(S(=O)(=O)O)c23)cc1NC(=O)c1cccc(NC(=O)Nc2cccc(C(=O)Nc3cc(C(=O)Nc4ccc(S(=O)(=O)O)c5cc(S(=O)(=O)O)cc(S(=O)(=O)O)c45)ccc3C)c2)c1
- fold change (FC) [10]: 4

SMILES: Nc1ccc(-c2nc3ccc(-c4nc5ccc(N)cc5[nH]4)cc3[nH]2)cc1
- inhibition [11]: > 40%

SMILES: C[C@@]12C(=O)OC(=O)[C@]1(C)[C@H]1CC[C@@H]2O1 [CANTHARIDIN]
- IC50 [8]: 1700 nM
- IC50 [12]: 160 nM
- IC50 [13]: > 500 µM
- IC50 [14]: 50 nM
- IC50 [15]: 8 µM

SMILES: CC(C)(COP(=O)(O)OP(=O)(O)OC[C@H]1O[C@@H](n2cnc3c(N)ncnc32)[C@H](O)[C@@H]1OP(=O)(O)O)[C@@H](O)C(=O)NCCC(=O)NCCS [COENZYME_A]
- EC50 [4]: 1 µM

SMILES: O=C1OC(=O)C2C3CCC(O3)C12 (stereo not given) [DEMETHYL-CANTHARIDIN]
- IC50 [5]: 1000 nM

SMILES: C[C@@](O)(/C=C/[C@H]1CC=CC(=O)O1)[C@@H](C[C@@H](O)\C=C/C=C\C=C\CO)OP(=O)(O)O [FOSTRIECIN]
- IC50 [8]: > 100000 nM
- IC50 [12]: 1.5 nM
- IC50 [13]: > 100 µM
- IC50 [15]: 0.01 µM
- IC50 [16]: 3 nM
- IC50 [5]: > 1000 nM
- IC50 [17]: > 1000 nM

SMILES: C=C1C(=O)N[C@H](C)C(=O)N[C@@H](CC(C)C)C(=O)N[C@@H](C(=O)O)[C@H](C)C(=O)N[C@@H](CCCNC(=N)N)C(=O)N[C@@H](/C=C/C(C)=C/[C@H](C)[C@H](Cc2ccccc2)OC)[C@H](C)C(=O)N[C@@H](C(=O)O)CCC(=O)N1C [MICROCYSTIN-LR] (R[Adda][d(γGlu)][NMeDha][dA]L[dAsp(3S-Me)]-OH; lactam N-7)
- IC50 [8]: 1.7 nM
- IC50 [13]: 0.2 µM
- IC50 [14]: 0.15 nM
- IC50 [18]: 0.04 nM
